The record followed here is patent publication US8859549B2, “Potassium channel modulators” (AbbVie, Inc., priority 2011, dated 2014).

In this test the target is T1, KCNQ 2/3 channels (Homo sapiens, UniProt O43525+O43526).
T1 construct: expressed in transfected cells; host or cells: HEK293
Description: KCNQ 2/3 channel activation, thallium flux FLIPR assay (BTC-AM dye). The class given is cell-based. As to conditions: for Emax: HEK293, maximum response relative to the response of 10 μM retigabine (set at 100%), HEK293 KCNQ2/KCNQ3 cells, read-out: % MAX; for pEC50: HEK293 cells stably expressing human KCNQ2 and KCNQ3 subunits, thallium-induced fluorescence, 4 min compound incubation. Put shortly: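 HEK293 cells stably expressing human KCNQ2/KCNQ3 were loaded with BTC-AM (3 μg/mL, 2 h, RT) and preincubated with compound for 4 min in pH 7.3 gluconate buffer containing 0.1 mM ouabain. Flux was triggered by 6 mM TlNO3/10 mM K2SO4 and read for 3 min; EC50 came from summed responses over basal, with maximum relative to 10 μM retigabine (100%).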

SMILES strings stand for the structures. pEC50: −log10 of the molar value.

With `CC(C)(C)OC(=O)N1CCN(C(=O)c2nn(NC(=O)CC3CC4CCC3C4)c(=O)c3ccccc23)CC1` (racemic) [Example 98, (±)-tert-butyl 4-[(3-{[(exo)-bicyclo[2.2.1]hept-2-ylacetyl]amino}-4-oxo-3,4-dihydrophthalazin-1-yl)carbonyl]piperazine-1-carboxylate], the Emax worked out at 140% and the pEC50 is 5.30.

`C[C@@H]1CN(c2nn(NC(=O)Cc3cc(F)cc(F)c3)c(=O)c3ccccc23)C[C@H](C)O1` [Example 88, 2-(3,5-difluorophenyl)-N-{4-[(cis)-2,6-dimethylmorpholin-4-yl]-1-oxophthalazin-2(1H)-yl}acetamide]: the Emax was determined as 107% and the pEC50 was 6.00. For `CC(C)(C)C(=O)NCc1nn(NC(=O)Cc2ccc(Cl)cc2)c(=O)c2ccccc12` [Example 87, N-[(3-{[(4-chlorophenyl)acetyl]amino}-4-oxo-3,4-dihydrophthalazin-1-yl)methyl]-2,2-dimethylpropanamide] the same measures were 89.1% and 5.00. On to `O=C(CC1CC2CCC1C2)Nn1nc(-c2ccnc(C(=O)O)c2)c2ccccc2c1=O` (racemic) [Example 75, (±)-4-(3-{[(exo)-bicyclo[2.2.1]hept-2-ylacetyl]amino}-4-oxo-3,4-dihydrophthalazin-1-yl)pyridine-2-carboxylic acid], for which the Emax is 183% and the negative-log EC50 (pEC50) is 5.39. In the case of `CN(Cc1ccccc1)c1nn(NC(=O)Cc2ccc(Cl)cc2)c(=O)c2ccccc12` [Example 36, N-{4-[benzyl(methyl)amino]-1-oxophthalazin-2(1H)-yl}-2-(4-chlorophenyl)acetamide], the Emax is 105% and the pEC50 was 6.66. As to `COc1cc(CC(=O)Nn2nc(N3CCOCC3)c3ccccc3c2=O)cc(OC)c1` [Example 173, 2-(3,5-dimethoxyphenyl)-N-[4-(morpholin-4-yl)-1-oxophthalazin-2(1H)-yl]acetamide], the Emax was determined as 33.9%.

As to `CS(=O)(=O)c1ccc(CC(=O)Nn2nc(S(=O)(=O)c3ccccc3)c3ccccc3c2=O)cc1` [Example 189, 2-[4-(methylsulfonyl)phenyl]-N-[1-oxo-4-(phenylsulfonyl)phthalazin-2(1H)-yl]acetamide], the Emax amounted to 37%.

For `CC(C)(CC(=O)Nn1nc(N2CCOCC2)c2ccccc2c1=O)c1ccccc1` [Example 33, 3-methyl-N-[4-(morpholin-4-yl)-1-oxophthalazin-2(1H)-yl]-3-phenylbutanamide], the Emax worked out at 131% and the pEC50 was 5.80. For `O=C(Cc1cc(F)cc(F)c1)Nn1nc(SCc2ccccc2)c2ccccc2c1=O` [Example 212, N-[4-(benzylsulfanyl)-1-oxophthalazin-2(1H)-yl]-2-(3,5-difluorophenyl)acetamide] the same measures were 109% and 6.82. `CN(C)c1ccc(-c2nn(NC(=O)CC3CC4CCC3C4)c(=O)c3ccccc23)cn1` (racemic) [Example 47, (±)-2-[(exo)-bicyclo[2.2.1]hept-2-yl]-N-{4-[6-(dimethylamino)pyridin-3-yl]-1-oxophthalazin-2(1H)-yl}acetamide]: the Emax was found to be 122% and the pEC50 was 6.42. For `O=C(Cc1ccc(Br)cc1)Nn1nc(N2CCOCC2)c2ccccc2c1=O` [Example 155, 2-(4-bromophenyl)-N-[4-(morpholin-4-yl)-1-oxophthalazin-2(1H)-yl]acetamide], the Emax amounted to 110% and the pEC50 was 5.59. In the same order, the values of `CCC(C)(C)OC(=O)NCc1nn(NC(=O)Cc2ccc(Cl)cc2)c(=O)c2ccccc12` [Example 182, 2-methylbutan-2-yl[(3-{[(4-chlorophenyl)acetyl]amino}-4-oxo-3,4-dihydrophthalazin-1-yl)methyl]carbamate] are 63.8% and 5.88.

For the compound `O=C(O)Cc1nn(NC(=O)Cc2ccc(Cl)cc2)c(=O)c2ccccc12` [Example 114, (3-{[(4-chlorophenyl)acetyl]amino}-4-oxo-3,4-dihydrophthalazin-1-yl)acetic acid], the Emax is 3.72%.

Consider `COc1cccc(CC(=O)Nn2nc(N3CCOCC3)c3ccccc3c2=O)c1OC` [Example 169, 2-(2,3-dimethoxyphenyl)-N-[4-(morpholin-4-yl)-1-oxophthalazin-2(1H)-yl]acetamide], for which the Emax came to 23.6%. In the case of `O=C(Cc1ccc(Cl)cc1)Nn1nc(-c2ccnc(Cl)c2)c2ccccc2c1=O` [Example 49, 2-(4-chlorophenyl)-N-[4-(2-chloropyridin-4-yl)-1-oxophthalazin-2(1H)-yl]acetamide], the Emax was 107% and the pEC50 was 6.42. On to `O=C(CC1CC2CCC1C2)Nn1nc(-c2ccnc(O)c2)c2ccccc2c1=O` (racemic) [Example 46, (±)-2-[(exo)-bicyclo[2.2.1]hept-2-yl]-N-[4-(2-hydroxypyridin-4-yl)-1-oxophthalazin-2(1H)-yl]acetamide], for which the Emax worked out at 13.4%. Regarding `O=C(CC1CC2CCC1C2)Nn1nc(Cc2ccc(Cl)nc2)c2ccccc2c1=O` (racemic) [Example 30, (±)-2-[(exo)-bicyclo[2.2.1]hept-2-yl]-N-{4-[(6-chloropyridin-3-yl)methyl]-1-oxophthalazin-2(1H)-yl}acetamide], the Emax was 122% and the pEC50 was 7.23.

As to `O=C(CC1CCCC1)Nn1nc(N2CCOCC2)c2ccccc2c1=O` [Example 137, 2-cyclopentyl-N-[4-(morpholin-4-yl)-1-oxophthalazin-2(1H)-yl]acetamide], the Emax worked out at 135% and the pEC50 is 5.11.

As for `CS(=O)(=O)c1ccc(CC(=O)Nn2nc(Sc3ccccc3)c3ccccc3c2=O)cc1` [Example 181, 2-[4-(methylsulfonyl)phenyl]-N-[1-oxo-4-(phenylsulfanyl)phthalazin-2(1H)-yl]acetamide], the Emax turned out to be 92.6% and the pEC50 was 5.29.

As to `CC(C)(CC(=O)Nn1nc(S(=O)(=O)c2ccccc2)c2ccccc2c1=O)c1ccccc1` [Example 194, 3-methyl-N-[1-oxo-4-(phenylsulfonyl)phthalazin-2(1H)-yl]-3-phenylbutanamide], the Emax turned out to be 63.4% and the pEC50 was 5.75. In the same order, the values of `O=C(Cc1cccc(Cl)c1)Nn1nc(N2CCOCC2)c2ccccc2c1=O` [Example 152, 2-(3-chlorophenyl)-N-[4-(morpholin-4-yl)-1-oxophthalazin-2(1H)-yl]acetamide] are 80% and 5.26.

Consider `O=C(CC1CC2CCC1C2)Nn1nc(Sc2ccccc2)c2ccccc2c1=O` (racemic) [Example 59, (±)-2-[(exo)-bicyclo[2.2.1]hept-2-yl]-N-[1-oxo-4-(phenylsulfanyl)phthalazin-2(1H)-yl]acetamide], for which the Emax was 192% and the negative logarithm of the EC50 (pEC50) is 7.84. Turning to `O=C(Cc1ccc(C(F)(F)F)cc1)Nn1nc(N2CCOCC2)c2ccccc2c1=O` [Example 161, N-[4-(morpholin-4-yl)-1-oxophthalazin-2(1H)-yl]-2-[4-(trifluoromethyl)phenyl]acetamide], the Emax turned out to be 93%. Take `O=C(Cc1ccc(Cl)cc1)Nn1nc(CNC(=O)OC2CCCCC2)c2ccccc2c1=O` [Example 128, cyclohexyl[(3-{[(4-chlorophenyl)acetyl]amino}-4-oxo-3,4-dihydrophthalazin-1-yl)methyl]carbamate]: the Emax was 21.6%.

As for `O=C(Cc1ccc(Cl)cc1)Nn1nc(-c2cccs2)c2ccccc2c1=O` [Example 11, 2-(4-chlorophenyl)-N-[1-oxo-4-(thiophen-2-yl)phthalazin-2(1H)-yl]acetamide], the Emax amounted to 105% and the pEC50 is 6.53. In the same order, the values of `CC(C)(C)S(=O)(=O)c1nn(NC(=O)Cc2ccc(Cl)cc2)c(=O)c2ccccc12` [Example 201, N-[4-(tert-butylsulfonyl)-1-oxophthalazin-2(1H)-yl]-2-(4-chlorophenyl)acetamide] are 92.3% and 6.13.

For the compound `COc1cccc(CC(=O)Nn2nc(S(=O)(=O)c3ccccc3)c3ccccc3c2=O)c1` [Example 205, 2-(3-methoxyphenyl)-N-[1-oxo-4-(phenylsulfonyl)phthalazin-2(1H)-yl]acetamide], the Emax turned out to be 71.8% and the negative logarithm of the EC50 (pEC50) is 6.03. For the compound `O=C(Cc1ccccc1Br)Nn1nc(N2CCOCC2)c2ccccc2c1=O` [Example 153, 2-(2-bromophenyl)-N-[4-(morpholin-4-yl)-1-oxophthalazin-2(1H)-yl]acetamide], the Emax came out at 1.17%. With `Cc1ccc(CC(=O)Nn2nc(N3CCOCC3)c3ccccc3c2=O)cc1` [Example 141, 2-(4-methylphenyl)-N-[4-(morpholin-4-yl)-1-oxophthalazin-2(1H)-yl]acetamide], the Emax was 72% and the pEC50 was 5.28. Take `O=C(CC1CC2CCC1C2)Nn1nc(S(=O)(=O)c2ccc(Br)cc2)c2ccccc2c1=O` (racemic) [Example 204, (±)-2-[(exo)-bicyclo[2.2.1]hept-2-yl]-N-{4-[(4-bromophenyl)sulfonyl]-1-oxophthalazin-2(1H)-yl}acetamide]: the Emax amounted to 164% and the pEC50 is 7.62. With `CC(C(=O)O)c1nn(NC(=O)Cc2ccc(Cl)cc2)c(=O)c2ccccc12` (stereo not drawn) [Example 110, 2-(3-{[(4-chlorophenyl)acetyl]amino}-4-oxo-3,4-dihydrophthalazin-1-yl)propanoic acid], the Emax worked out at 2.26%. Consider `COc1ccc(CC(=O)Nn2nc(N3CCOCC3)c3ccccc3c2=O)cc1` [Example 147, 2-(4-methoxyphenyl)-N-[4-(morpholin-4-yl)-1-oxophthalazin-2(1H)-yl]acetamide], for which the Emax came to 18.7%.
